Results published in patent publication US10266525B2, “Processes for preparing 2-(6-(1H-indol-4-yl)-1H-indazol-4-yl)-5-((4-isopropylpiperazin-1-yl)methyl)oxazole” (GlaxoSmithKline Intellectual Property Development Limited, priority 2015, dated 2019).

What was measured:
[1] = solubility in simulated lung fluid; type: physicochemical
hygroscopicity = type: physicochemical

## CC(C)N1CCN(Cc2cnc(-c3cc(-c4cccc5[nH]ccc45)cc4[nH]ncc34)o2)CC1.O=C(O)c1ccccc1 [benzoate salt of Compound A, 2-(6-(1H-Indol-4-yl)-1H-indazol-4-yl)-5-((4-isopropylpiperazin-1-yl)methyl)oxazole benzoate]
[1]
  solubility in simulated lung fluid: suitable
hygroscopicity
  hygroscopicity: suitable
